Data taken from publication PMC10228259 (Nature, 2023).
Read-outs that look alike come from different tables or passages of the source.

Experiments:
[1] = target: T1, chemotactile receptor for terpenes 1 (CRT1, previously CR518) (Octopus bimaculoides, UniProt A0A0L8FVQ9); assay: cryo-EM structure at […] Å; format: cell-based
T1 sequence (A0A0L8FVQ9 21-399): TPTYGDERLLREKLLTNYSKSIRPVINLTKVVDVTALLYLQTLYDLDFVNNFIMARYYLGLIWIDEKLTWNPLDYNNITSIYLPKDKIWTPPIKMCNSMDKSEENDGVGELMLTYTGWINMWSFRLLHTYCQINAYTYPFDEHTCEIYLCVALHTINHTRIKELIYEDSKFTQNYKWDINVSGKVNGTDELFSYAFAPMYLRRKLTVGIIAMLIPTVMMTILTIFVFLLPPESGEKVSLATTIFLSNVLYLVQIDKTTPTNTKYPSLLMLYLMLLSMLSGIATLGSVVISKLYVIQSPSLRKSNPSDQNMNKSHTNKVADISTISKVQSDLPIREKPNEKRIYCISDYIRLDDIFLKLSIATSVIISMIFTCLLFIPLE

[2] = target: T2, chemotactile receptor for terpenes 1 (CRT1) (Octopus bimaculoides, UniProt A0A0L8FVQ9); assay: patch clamp dose-response in HEK […] cells expressing CRT1; format: cell-based
T2 sequence (A0A0L8FVQ9 21-399): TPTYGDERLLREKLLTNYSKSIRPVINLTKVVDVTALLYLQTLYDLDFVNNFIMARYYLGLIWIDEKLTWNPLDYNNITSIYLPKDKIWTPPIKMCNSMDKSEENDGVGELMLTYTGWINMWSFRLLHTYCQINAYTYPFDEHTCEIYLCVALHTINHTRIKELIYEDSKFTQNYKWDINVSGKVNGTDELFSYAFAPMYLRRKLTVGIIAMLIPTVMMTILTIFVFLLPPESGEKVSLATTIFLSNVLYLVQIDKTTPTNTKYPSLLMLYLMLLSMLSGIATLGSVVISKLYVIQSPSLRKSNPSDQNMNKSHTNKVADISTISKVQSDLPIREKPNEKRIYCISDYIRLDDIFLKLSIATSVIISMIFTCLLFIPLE

[3] = target: T2, chemotactile receptor for terpenes 1 (CRT1); assay: as above; format: cell-based; remark: listed apart in the source
cryo-EM structure = target: the molecule itself; assay: cryo-EM structure

For C[C@@H]1CC[C@@]2(OC1)O[C@H]1C[C@H]3[C@@H]4CC=C5C[C@@H](OCCC(CO[C@@H]6O[C@H](CO)[C@@H](O[C@H]7O[C@H](CO)[C@@H](O)[C@H](O)[C@H]7O)[C@H](O)[C@H]6O)CO[C@@H]6O[C@H](CO)[C@@H](O[C@H]7O[C@H](CO)[C@@H](O)[C@H](O)[C@H]7O)[C@H](O)[C@H]6O)CC[C@]5(C)[C@H]4CC[C@]3(C)[C@H]1[C@@H]2C [GDN, glyco-diosgenin], the EC50 [1] was 125 nM.

Work on C=C(C)[C@@H]1CCC2=CC(=O)C[C@@H](C)[C@]2(C)C1 [nootkatone] yielded an EC50 [2] of 16.1 µM.

In the case of C[C@H]1CCCC(=O)CCC/C=C/c2cc(O)cc(O)c2C(=O)O1 [zearalenone], the EC50 [3] is reported as 4.8 µM.

B1: chemotactile receptor for terpenes 1 (CRT1) (receptor, Octopus bimaculoides, UniProt A0A0L8FVQ9 21-399, looked up)
chain: TPTYGDERLLREKLLTNYSKSIRPVINLTKVVDVTALLYLQTLYDLDFVNNFIMARYYLGLIWIDEKLTWNPLDYNNITSIYLPKDKIWTPPIKMCNSMDKSEENDGVGELMLTYTGWINMWSFRLLHTYCQINAYTYPFDEHTCEIYLCVALHTINHTRIKELIYEDSKFTQNYKWDINVSGKVNGTDELFSYAFAPMYLRRKLTVGIIAMLIPTVMMTILTIFVFLLPPESGEKVSLATTIFLSNVLYLVQIDKTTPTNTKYPSLLMLYLMLLSMLSGIATLGSVVISKLYVIQSPSLRKSNPSDQNMNKSHTNKVADISTISKVQSDLPIREKPNEKRIYCISDYIRLDDIFLKLSIATSVIISMIFTCLLFIPLE
modifications: N-linked glycans
With B1 the “stoichiometry N” value (cryo-EM structure) was 5.
